≈ marks a conversion by molar mass, not a printed value.
Assay: Water solubility
Assay type: physicochemical

solubility in water	solubility [µg/mL]	SMILES
very poor	–	COC(=O)c1ccc2c(c1)NC(=O)/C2=C(\Nc1ccc(N(C)C(=O)CN2CCN(C)CC2)cc1)c1ccccc1 [free base of nintedanib, 3-Z-[1-(4-(N-((4-methyl-piperazin-1-yl)-methylcarbonyl)-N-methyl-amino)-anilino)-1-phenyl-methylene]-6-methoxycarbonyl-2-indolinone]
–	2800 (≈ 5.19 mM)	COC(=O)c1ccc2c(c1)NC(=O)/C2=C(\Nc1ccc(N(C)C(=O)CN2CCN(C)CC2)cc1)c1ccccc1 [nintedanib esylate]

— patent US20240058264A1, “PHARMACEUTICAL FORMULATIONS OF NINTEDANIB FOR INTRAOCULAR USE” (Boehringer Ingelheim International GmbH, priority 2022, published 2024)
